Measured values: ChEMBL document CHEMBL1201862, “PubChem BioAssay data set” (2004)
Active and inactive are the calls of the source.

Columns and labels:
[1] = biological target: Mitogen-activated protein kinase 10 (Homo sapiens, UniProt P53779); assay: Dose response biochemical screening assay for inhibitors of c-Jun N-Terminal Kinase 3 (JNK3). [Related pubchem assays: 746 ]
[2] = biological target: Peroxisome proliferator-activated receptor gamma/Nuclear receptor coactivator 3 (Homo sapiens, UniProt P37231); assay: TR-FRET dose response biochemical High Throughput Screening assay for agonists of the steroid receptor coactivator 3 (SRC-3) recruitment by the peroxisome proliferator-activated receptor gamma (PPAR gamma): non-selective agonists. [Related pubchem assays: 1301 (Confirmation screen.), 1048 (Primary screen.)]; format: functional
Sequence of Peroxisome proliferator-activated receptor gamma/Nuclear receptor coactivator 3 (P37231 whole entry): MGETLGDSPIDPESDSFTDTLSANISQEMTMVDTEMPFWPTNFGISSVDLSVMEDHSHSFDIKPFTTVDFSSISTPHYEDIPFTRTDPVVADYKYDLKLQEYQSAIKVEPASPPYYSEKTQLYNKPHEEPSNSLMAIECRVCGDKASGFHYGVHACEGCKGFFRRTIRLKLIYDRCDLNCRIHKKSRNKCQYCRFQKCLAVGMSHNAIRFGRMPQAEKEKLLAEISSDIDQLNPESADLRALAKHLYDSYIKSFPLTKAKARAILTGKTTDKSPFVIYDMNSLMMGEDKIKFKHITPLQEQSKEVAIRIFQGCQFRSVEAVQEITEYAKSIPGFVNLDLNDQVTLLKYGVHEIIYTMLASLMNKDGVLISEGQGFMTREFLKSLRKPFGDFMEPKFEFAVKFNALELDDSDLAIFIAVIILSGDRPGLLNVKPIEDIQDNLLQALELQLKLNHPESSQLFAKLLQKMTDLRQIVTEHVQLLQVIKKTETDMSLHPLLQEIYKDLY
Sequence of Peroxisome proliferator-activated receptor gamma/Nuclear receptor coactivator 3 (Q9Y6Q9 whole entry, further chain): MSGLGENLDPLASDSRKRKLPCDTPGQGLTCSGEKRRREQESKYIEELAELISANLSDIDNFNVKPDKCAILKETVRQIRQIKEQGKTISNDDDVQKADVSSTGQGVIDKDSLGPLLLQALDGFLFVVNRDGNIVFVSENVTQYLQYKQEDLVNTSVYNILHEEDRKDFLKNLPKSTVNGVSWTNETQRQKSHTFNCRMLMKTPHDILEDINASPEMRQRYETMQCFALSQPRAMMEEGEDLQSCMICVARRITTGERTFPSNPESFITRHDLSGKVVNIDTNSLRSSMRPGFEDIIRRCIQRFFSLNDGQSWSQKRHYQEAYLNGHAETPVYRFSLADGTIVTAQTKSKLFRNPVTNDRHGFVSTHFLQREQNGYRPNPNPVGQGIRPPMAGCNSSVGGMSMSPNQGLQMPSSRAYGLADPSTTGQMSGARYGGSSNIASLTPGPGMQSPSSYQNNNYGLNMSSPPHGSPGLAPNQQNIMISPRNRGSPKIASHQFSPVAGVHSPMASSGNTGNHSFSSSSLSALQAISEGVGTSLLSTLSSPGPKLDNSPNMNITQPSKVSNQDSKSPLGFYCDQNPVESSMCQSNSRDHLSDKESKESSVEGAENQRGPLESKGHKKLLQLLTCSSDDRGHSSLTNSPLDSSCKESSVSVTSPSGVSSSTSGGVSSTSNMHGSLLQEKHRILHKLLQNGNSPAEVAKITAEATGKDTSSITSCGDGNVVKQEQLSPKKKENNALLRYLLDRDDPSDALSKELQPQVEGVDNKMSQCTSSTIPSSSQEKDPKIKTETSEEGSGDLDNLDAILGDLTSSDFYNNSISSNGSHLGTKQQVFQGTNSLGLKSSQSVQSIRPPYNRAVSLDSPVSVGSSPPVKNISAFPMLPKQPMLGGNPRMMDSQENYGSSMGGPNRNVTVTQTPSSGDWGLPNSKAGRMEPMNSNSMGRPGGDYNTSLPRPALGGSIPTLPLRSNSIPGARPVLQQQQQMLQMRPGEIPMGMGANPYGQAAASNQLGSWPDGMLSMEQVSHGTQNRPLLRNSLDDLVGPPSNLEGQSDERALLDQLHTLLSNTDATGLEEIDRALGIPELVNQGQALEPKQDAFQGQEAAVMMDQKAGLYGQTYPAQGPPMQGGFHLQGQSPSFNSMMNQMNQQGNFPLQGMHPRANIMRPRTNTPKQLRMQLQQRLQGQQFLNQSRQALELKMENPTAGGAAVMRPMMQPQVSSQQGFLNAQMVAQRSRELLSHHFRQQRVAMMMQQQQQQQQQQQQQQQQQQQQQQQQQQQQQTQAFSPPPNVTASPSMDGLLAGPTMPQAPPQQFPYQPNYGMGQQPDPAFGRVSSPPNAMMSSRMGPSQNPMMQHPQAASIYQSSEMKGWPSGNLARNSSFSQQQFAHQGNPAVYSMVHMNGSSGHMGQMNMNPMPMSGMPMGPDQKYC

[3] = biological target: Peroxisome proliferator-activated receptor gamma/Nuclear receptor coactivator 2 (Homo sapiens, UniProt P37231); assay: (§1) TR-FRET dose response biochemical High Throughput Screening assay for agonists of the steroid receptor coactivator 2 (SRC-2) recruitment by the peroxisome proliferator-activated receptor gamma (PPAR gamma): non-selective agonists. [Related pubchem assays: 1297, 1032 ]; format: functional
[4] = biological target: Peroxisome proliferator-activated receptor gamma/Nuclear receptor coactivator 1 (Homo sapiens, UniProt P37231); assay: as §1, with “1 (SRC-1)” for “2 (SRC-2)”, “assays (depositor defined):AID1300, AID1808, AID504735, AID631]” for “assays: 1297, 1032 ]”; format: protein assay
[5] = biological target: T1, Zinc finger protein mex-5 (Caenorhabditis elegans, UniProt Q9XUB2); assay: MEX-5/TCR-2 RNA interaction inhibitors, dose response, biochemical, C. elegans, fluorescence polarization (AID 1960)
T1 sequence (Q9XUB2 whole entry): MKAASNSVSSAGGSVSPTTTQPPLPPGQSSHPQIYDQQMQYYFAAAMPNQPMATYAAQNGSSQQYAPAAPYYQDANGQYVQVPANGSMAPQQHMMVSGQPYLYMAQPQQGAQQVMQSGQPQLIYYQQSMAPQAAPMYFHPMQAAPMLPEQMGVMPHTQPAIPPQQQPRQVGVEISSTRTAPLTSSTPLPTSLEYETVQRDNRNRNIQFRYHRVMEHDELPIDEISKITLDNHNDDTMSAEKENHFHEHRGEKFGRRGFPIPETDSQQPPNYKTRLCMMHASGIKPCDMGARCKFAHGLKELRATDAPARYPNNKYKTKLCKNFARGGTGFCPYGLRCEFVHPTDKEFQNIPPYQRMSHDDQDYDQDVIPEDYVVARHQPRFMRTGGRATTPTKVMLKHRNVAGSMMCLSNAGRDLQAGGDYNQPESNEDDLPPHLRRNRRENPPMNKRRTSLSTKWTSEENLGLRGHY

[6] = biological target: Tyrosine-protein phosphatase non-receptor type 7 (Homo sapiens, UniProt P35236); assay: inhibitors of human HePTP phosphatase, […], biochemical, absorbance, leukemia target (AID 521); format: functional
Sequence of Tyrosine-protein phosphatase non-receptor type 7 (P35236 whole entry): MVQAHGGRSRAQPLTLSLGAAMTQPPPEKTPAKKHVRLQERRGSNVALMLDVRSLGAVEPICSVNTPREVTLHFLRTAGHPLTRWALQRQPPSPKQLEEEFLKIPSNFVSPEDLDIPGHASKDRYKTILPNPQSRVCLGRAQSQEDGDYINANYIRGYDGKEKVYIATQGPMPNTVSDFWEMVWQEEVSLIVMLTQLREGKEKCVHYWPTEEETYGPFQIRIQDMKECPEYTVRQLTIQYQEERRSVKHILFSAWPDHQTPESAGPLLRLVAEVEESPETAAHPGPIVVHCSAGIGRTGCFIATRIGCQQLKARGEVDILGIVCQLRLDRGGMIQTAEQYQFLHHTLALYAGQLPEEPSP

NS3 = NS3 (Hepatitis C virus, UniProt A3EZJ3); assay: HCV NS3 helicase inhibitor potency, dose response, biochemical, fluorescence polarization, ChemBridge library (AID 743264)
Sequence of NS3 (A3EZJ3 whole entry, the tested form may be a part): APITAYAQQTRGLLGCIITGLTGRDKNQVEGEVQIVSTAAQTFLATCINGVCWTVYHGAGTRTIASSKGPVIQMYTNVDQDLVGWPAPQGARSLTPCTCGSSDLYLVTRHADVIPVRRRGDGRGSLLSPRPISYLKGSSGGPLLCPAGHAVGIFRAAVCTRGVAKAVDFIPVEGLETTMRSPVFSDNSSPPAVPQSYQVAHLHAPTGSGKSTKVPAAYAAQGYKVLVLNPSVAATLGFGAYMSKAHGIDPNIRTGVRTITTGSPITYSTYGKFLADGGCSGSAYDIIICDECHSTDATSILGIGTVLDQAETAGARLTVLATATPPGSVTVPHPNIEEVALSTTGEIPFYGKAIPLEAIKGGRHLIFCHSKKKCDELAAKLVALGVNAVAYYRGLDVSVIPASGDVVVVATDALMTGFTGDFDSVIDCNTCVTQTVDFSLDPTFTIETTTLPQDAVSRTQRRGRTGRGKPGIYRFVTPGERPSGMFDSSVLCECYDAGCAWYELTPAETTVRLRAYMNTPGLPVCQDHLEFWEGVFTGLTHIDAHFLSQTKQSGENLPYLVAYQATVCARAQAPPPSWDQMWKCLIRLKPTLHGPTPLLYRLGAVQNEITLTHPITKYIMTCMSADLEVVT

[7] = biological target: T2, RNA-binding protein pos-1 (Caenorhabditis elegans, UniProt G5EF15); assay: inhibitors of POS-1/mex-3 RNA binding, dose response, biochemical, fluorescence polarization (AID 1964);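 further: purified POS-1 fused to maltose binding protein made in E. coli; potency of compounds blocking POS-1 binding to fluorescent RNA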
T2 sequence (G5EF15 whole entry): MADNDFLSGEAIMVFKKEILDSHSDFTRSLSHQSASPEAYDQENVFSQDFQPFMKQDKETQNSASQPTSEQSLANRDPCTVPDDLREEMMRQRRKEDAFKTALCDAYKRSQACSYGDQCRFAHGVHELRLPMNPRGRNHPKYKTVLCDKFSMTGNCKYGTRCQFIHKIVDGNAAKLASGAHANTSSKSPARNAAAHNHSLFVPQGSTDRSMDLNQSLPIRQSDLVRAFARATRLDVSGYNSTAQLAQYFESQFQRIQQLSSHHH

Estrogen receptor = biological target: T3, Estrogen receptor (Homo sapiens, UniProt P03372);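 further: potency for inhibiting coactivator peptide recruitment to the receptor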
T3 sequence (P03372 whole entry): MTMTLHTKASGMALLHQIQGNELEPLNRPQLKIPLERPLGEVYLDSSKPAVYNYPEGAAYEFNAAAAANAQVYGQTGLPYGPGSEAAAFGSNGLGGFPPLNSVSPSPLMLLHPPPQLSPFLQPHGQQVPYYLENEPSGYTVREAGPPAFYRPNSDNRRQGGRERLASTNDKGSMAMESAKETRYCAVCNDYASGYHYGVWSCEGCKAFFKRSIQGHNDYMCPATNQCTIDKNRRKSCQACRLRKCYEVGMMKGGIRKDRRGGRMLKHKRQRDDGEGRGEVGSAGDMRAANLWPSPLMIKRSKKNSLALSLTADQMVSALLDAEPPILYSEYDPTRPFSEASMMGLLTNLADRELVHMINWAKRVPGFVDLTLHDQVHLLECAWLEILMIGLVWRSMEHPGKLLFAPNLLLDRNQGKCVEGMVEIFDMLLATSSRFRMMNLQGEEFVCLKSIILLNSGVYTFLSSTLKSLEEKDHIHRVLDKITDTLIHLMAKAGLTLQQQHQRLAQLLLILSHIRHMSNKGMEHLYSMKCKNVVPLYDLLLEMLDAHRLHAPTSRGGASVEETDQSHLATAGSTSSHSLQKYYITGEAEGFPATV

[8] = inhibitors of orthopox intermediate gene expression, dose response, cell-based, single fluorophore reporter, dry powder (AID 1117271); format: functional
[9] = Single fluorophore orthopox expression reporter, late gene expression Measured in Cell-Based and Microorganism Combination System Using Plate Reader - 2142-08_Inhibitor_Dose_DryPowder_Activity.; format: functional
[10] = A549 cell cytotoxicity, dose response, CellTiter-Glo luminescence, dry powder, set 17 (AID 1117284); format: functional, cell-based

Sequence of Mitogen-activated protein kinase 10 (P53779 whole entry): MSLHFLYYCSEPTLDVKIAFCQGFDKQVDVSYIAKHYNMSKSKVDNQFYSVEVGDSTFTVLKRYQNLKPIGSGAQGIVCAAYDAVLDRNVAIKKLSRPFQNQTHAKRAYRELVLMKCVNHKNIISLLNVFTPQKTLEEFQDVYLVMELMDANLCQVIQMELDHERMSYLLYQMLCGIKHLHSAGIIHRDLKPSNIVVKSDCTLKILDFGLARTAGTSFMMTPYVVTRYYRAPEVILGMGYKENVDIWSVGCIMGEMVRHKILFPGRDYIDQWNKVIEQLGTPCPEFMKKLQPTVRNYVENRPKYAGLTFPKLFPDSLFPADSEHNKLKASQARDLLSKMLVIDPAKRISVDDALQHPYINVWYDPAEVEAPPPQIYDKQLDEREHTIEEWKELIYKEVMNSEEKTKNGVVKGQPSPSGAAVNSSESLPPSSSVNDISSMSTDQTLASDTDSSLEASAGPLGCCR

SMILES: CC(=O)c1sc(Nc2ccccn2)nc1C
- IC50 [1]: 40.3 µM (not active)
- EC50 [2]: > 79.4 µM (not active)
- EC50 [3]: > 79.4 µM (not active)
- EC50 [4]: > 79.4 µM (inactive)

SMILES: Cc1cc(C(=O)O)ccc1-n1c(C)ccc1C
- EC50 [5]: 8.59 µM (active)
- IC50 [6]: 0.76 µM (active)
- IC50 (NS3): 6.25 µM (inactive)
- EC50 [7]: 5.94 µM (active)
- IC50 (Estrogen receptor): 7.53 µM (active)

SMILES: C[C@@H](O)C#Cc1ccc2c(c1)O[C@@H](CN(C)Cc1ccc(-c3cccc(Cl)c3)cc1)[C@@H](C)CN([C@@H](C)CO)S2(=O)=O
- AC50 [8]: 3.58 µM (active)
- AC50 [9]: 2.54 µM (active)
- AC50 [10]: 51.5 µM (active)
